According to patent publication US20120201749A1, “NP-1 Antagonists and Their Therapeutic Use” (priority 2009, published 2012):

Molecular target: NP-1 (Homo sapiens, UniProt O14786)
Assay: Biotinylated-VEGF-A165 (bt-VEGF-A165) binding to NP-1
Settings: for inhibition at 3 µM: 3 μM compound, read-out: Screen (% inhibition at 3 μM); for inhibition at 30 µM: read-out: Screen (% inhibition at 30 μM)
Protocol: Human prostate carcinoma DU145 cells were cultured in growth medium (RPMI 1640 containing 10% FBS and L-glutamine). DU145 cells were seeded at the density of 2×10^4 cells per well (96-well plates) in 0.1 ml growth medium and transfected with adenovirus vectors containing the full-length open-reading frame of human NP-1. The Ad.NP-1-transfected cells grew for 2 days prior to a binding assay.
Confluent Ad.NP-1-transfected cells in 96-well plates were washed twice with phosphate-buffered saline (PBS). The various concentrations of compounds diluted in binding medium (Dulbecco's modified Eagle's medium, 25 mM HEPES pH 7.3 containing 0.1% BSA) were added, followed by addition of 2 nM of bt-VEGF-A165. After 2 h of incubation at room temperature, the medium was aspirated and washed three times with PBS. The bound bt-VEGF-A165 to NP-1 was detected by streptavidin-horseradish peroxidase conjugates and the enzyme substrate, and measured using a Tecan Genios plate reader at A450 nm with a reference wavelength at A595 nm. Non-specific binding was determined in the presence of 100-fold excess unlabelled VEGF-A165.
The 96-well plates were pre-coated with NP1 protein at 3 μg/ml overnight at 4° C. On the following day, the plates were treated with blocking buffer (PBS containing 1% BSA) and washed three times with wash buffer (PBS containing 0.1% Tween-20). The various concentrations of compounds diluted in PBS containing 1% DMSO were added, followed by addition of 0.25 nM of bt-VEGF-A165. After 2 h of incubation at room temperature, the plates were washed three times with wash buffer. The bound bt-VEGF-A165 to NP-1 was detected by streptavidin-horseradish peroxidase conjugates and the enzyme substrate, and measured using a Tecan Genios plate reader at A450 nm with a reference wavelength at A595 nm. Nonspecific binding was determined in the absence of NP-1 coated wells of the plates.

Chain of NP-1 (O14786 22-923): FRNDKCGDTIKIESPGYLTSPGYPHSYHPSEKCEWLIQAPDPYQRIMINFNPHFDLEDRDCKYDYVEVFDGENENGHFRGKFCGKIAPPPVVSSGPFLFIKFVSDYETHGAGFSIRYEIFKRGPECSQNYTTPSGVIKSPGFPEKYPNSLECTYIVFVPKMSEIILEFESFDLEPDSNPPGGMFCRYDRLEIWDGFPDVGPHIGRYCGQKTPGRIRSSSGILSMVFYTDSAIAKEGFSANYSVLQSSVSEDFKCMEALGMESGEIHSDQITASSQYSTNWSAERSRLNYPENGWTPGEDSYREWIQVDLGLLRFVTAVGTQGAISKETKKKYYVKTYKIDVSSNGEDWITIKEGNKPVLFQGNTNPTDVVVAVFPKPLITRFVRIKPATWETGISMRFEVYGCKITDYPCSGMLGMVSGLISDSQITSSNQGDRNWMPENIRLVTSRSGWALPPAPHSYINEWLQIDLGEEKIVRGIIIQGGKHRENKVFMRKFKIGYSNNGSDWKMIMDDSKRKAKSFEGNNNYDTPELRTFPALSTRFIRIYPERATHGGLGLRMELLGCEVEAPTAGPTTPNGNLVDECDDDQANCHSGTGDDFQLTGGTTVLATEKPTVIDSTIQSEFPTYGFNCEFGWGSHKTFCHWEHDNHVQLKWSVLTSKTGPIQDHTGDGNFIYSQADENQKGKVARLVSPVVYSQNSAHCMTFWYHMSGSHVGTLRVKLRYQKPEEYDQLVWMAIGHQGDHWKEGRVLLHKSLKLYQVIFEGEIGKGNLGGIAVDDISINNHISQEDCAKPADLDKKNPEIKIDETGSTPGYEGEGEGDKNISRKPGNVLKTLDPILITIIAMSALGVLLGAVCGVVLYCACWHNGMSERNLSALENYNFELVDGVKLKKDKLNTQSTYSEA

Cc1cc(CNCc2cccc(-c3cc4c(c(S(=O)(=O)Nc5ccsc5C(=O)N[C@@H](CCCNC(=N)N)C(=O)O)c3)OCC4)c2)no1 [Compound 48, (S)-5-Guanidino-2-({3-[5-(3-{[(5-methyl-isoxazol-3-ylmethyl)-amino]-methyl}-phenyl)-2,3-dihydro-benzofuran-7-sulfonylamino]-thiophene-2-carbonyl}-amino)-pentanoic acid] gave an IC50 of 0.054 µM, an inhibition at 3 µM of 86% and an inhibition at 30 µM (30 μM compound) of 99%.
Cc1ccc(NCCCNCc2ccccc2-c2cc3c(c(S(=O)(=O)Nc4ccsc4C(=O)N[C@@H](CCCNC(=N)N)C(=O)O)c2)OCC3)nc1 [Compound 50, (S)-5-Guanidino-2-({3-[5-(2-{[3-(5-methyl-pyridin-2-ylamino)-propylamino]-methyl}-phenyl)-2,3-dihydro-benzofuran-7-sulfonylamino]-thiophene-2-carbonyl}-amino)-pentanoic acid] gave an inhibition at 3 µM of 82%.
N=C(N)NCCC[C@H](NC(=O)c1sccc1NS(=O)(=O)c1cc(-c2ccccc2CNCc2ccncc2)cc2c1OCC2)C(=O)O [Compound 19, (S)-5-Guanidino-2-({3-[5-(2-{[(pyridin-4-ylmethyl)-amino]-methyl}-phenyl)-2,3-dihydro-benzofuran-7-sulfonylamino]-thiophene-2-carbonyl}-amino)-pentanoic acid] showed an inhibition at 3 µM of 56%.
In the case of N=C(N)NCCC[C@H](NC(=O)c1sccc1NS(=O)(=O)c1cc(-c2ccccc2CN2CCN(c3ccncc3)CC2)cc2c1OCC2)C(=O)O [Compound 15, (S)-5-Guanidino-2-[(3-{5-[2-(4-pyridin-4-yl-piperazin-1-ylmethyl)-phenyl]-2,3-dihydro-benzofuran-7-sulfonylamino}-thiophene-2-carbonyl)-amino]-pentanoic acid], the inhibition at 3 µM is reported as 62% and the inhibition at 30 µM (30 μM compound) is reported as 97%.
N=C(N)NCCC[C@H](NC(=O)c1sccc1NS(=O)(=O)c1cc(-c2ccccc2CN2CCN(c3ccccn3)CC2)cc2c1OCC2)C(=O)O [Compound 14, (S)-5-Guanidino-2-[(3-{5-[2-(4-pyridin-2-yl-piperazin-1-ylmethyl)-phenyl]-2,3-dihydro-benzofuran-7-sulfonylamino}-thiophene-2-carbonyl)-amino]-pentanoic acid] showed an inhibition at 3 µM of 67% and an inhibition at 30 µM (30 μM compound) of 100%.
For N=C(N)NCCC[C@H](NC(=O)c1sccc1NS(=O)(=O)c1cc(-c2cccc(CN3CCN(c4ccncc4)CC3)c2)cc2c1OCC2)C(=O)O [Compound 28, (S)-5-Guanidino-2-[(3-{5-[3-(4-pyridin-4-yl-piperazin-1-ylmethyl)-phenyl]-2,3-dihydro-benzofuran-7-sulfonylamino}-thiophene-2-carbonyl)-amino]-pentanoic acid], the IC50 was 0.216 µM, the inhibition at 3 µM was 96% and the inhibition at 30 µM (30 μM compound) was 100%.
For N=C(N)NCCC[C@H](NC(=O)c1sccc1NS(=O)(=O)c1cccc(NCc2csc(N3CCC(N)CC3)n2)c1)C(=O)O [Compound 64, (S)-5-guanidino-2-{[3-(3-{[2-(4-amino-piperidin-1-yl)-thiazol-4-ylmethyl]-amino}-benzenesulfonylamino)-thiophene-2-carbonyl]-amino}-pentanoic acid], the inhibition at 3 µM was 72% and the inhibition at 30 µM (30 μM compound) was 92%.
N=C(N)NCCC[C@H](NC(=O)c1sccc1NS(=O)(=O)c1cc(-c2cccc(CN3CCN(c4cccnc4)CC3)c2)cc2c1OCC2)C(=O)O [Compound 13, (S)-5-Guanidino-2-[(3-{5-[3-(4-pyridin-3-yl-piperazin-1-ylmethyl)-phenyl]-2,3-dihydro-benzofuran-7-sulfonylamino}-thiophene-2-carbonyl)-amino]-pentanoic acid] showed an IC50 of 0.591 µM and an inhibition at 30 µM (30 μM compound) of 100%.
In the case of N=C(N)NCCC[C@H](NC(=O)c1sccc1NS(=O)(=O)c1cccc(NCc2csc(N3CCN(Cc4cccnc4)CC3)n2)c1)C(=O)O [Compound 59, (S)-5-guanidino-2-{[3-(3-{[2-(4-pyridin-3-ylmethyl-piperazin-1-yl)-thiazol-4-ylmethyl]-amino}-benzenesulfonylamino)-thiophene-2-carbonyl]-amino}-pentanoic acid], the inhibition at 3 µM is reported as 58% and the inhibition at 30 µM (30 μM compound) is reported as 94%.
N=C(N)NCCC[C@H](NC(=O)c1sccc1NS(=O)(=O)c1cc(-c2cccc(CNCc3ccc(N)nc3)c2)cc2c1OCC2)C(=O)O [Compound 40, (S)-2-({3-[5-(3-{[(6-Amino-pyridin-3-ylmethyl)-amino]-methyl}-phenyl)-2,3-dihydro-benzofuran-7sulfonylamino]-thiophene-2-carbonyl}-amino)-5-guanidino-pentanoic acid] showed an inhibition at 3 µM of 56%.
With N=C(N)NCCC[C@H](NC(=O)c1sccc1NS(=O)(=O)c1cccc(NCc2csc(C(=O)O)n2)c1)C(=O)O [Compound 72] the inhibition at 3 µM was 31% and the inhibition at 30 µM (30 μM compound) was 83%.
N=C(N)NCCC[C@H](NC(=O)c1sccc1NS(=O)(=O)c1cc(-c2cccc(CNCc3cc[nH]n3)c2)cc2c1OCC2)C(=O)O [Compound 52, (S)-5-Guanidino-2-({3-[5-(3-{[(1H-pyrazol-3-ylmethyl)-amino]-methyl}-phenyl)-2,3-dihydro-benzofuran-7-sulfonylamino]-thiophene-2-carbonyl}-amino)-pentanoic acid] was tested, and the inhibition at 3 µM was 77%.
For N=C(N)NCCC[C@H](NC(=O)c1sccc1NS(=O)(=O)c1cc(-c2cccc(CNCCc3cn[nH]c3)c2)cc2c1OCC2)C(=O)O [Compound 42, (S)-5-Guanidino-2-({3-[5-(3-{[2-(1H-pyrazol-4-yl)-ethylamino]-methyl}-phenyl)-2,3-dihydro-benzofuran-7-sulfonylamino]-thiophene-2-carbonyl}-amino)-pentanoic acid], the inhibition at 3 µM was 78%.
N=C(N)NCCC[C@H](NC(=O)c1sccc1NS(=O)(=O)c1cc(-c2ccccc2CN2CCC(CC(=O)O)CC2)cc2c1OCC2)C(=O)O [Compound 2, (S)-2-[(3-{5-[2-(4-Carboxymethyl-piperidin-1-ylmethyl)-phenyl]-2,3-dihydro-benzofuran-7-sulfonylamino}-thiophene-2-carbonyl)-amino]-5-guanidino-pentanoic acid] showed an inhibition at 3 µM of 96%.
Work on Cc1cc(CNc2nc(CNc3cccc(S(=O)(=O)Nc4ccsc4C(=O)N[C@@H](CCCNC(=N)N)C(=O)O)c3)cs2)no1 [Compound 67] yielded an inhibition at 3 µM of 44% and an inhibition at 30 µM (30 μM compound) of 90%.
Molecule Cn1cncc1CNCc1cccc(-c2cc3c(c(S(=O)(=O)Nc4ccsc4C(=O)N[C@@H](CCCNC(=N)N)C(=O)O)c2)OCC3)c1 [Compound 36, (S)-5-Guranidino-2-({3-[5-(3-{[(3-methyl-3H-imidazol-4-ylmethyl)-amino]-methyl}-phenyl)-2,3-dihydro-benzofuran-7-sulfonylamino]-thiophene-2-carbonyl}-amino)-pentanoic acid] has an IC50 of 0.32 µM, an inhibition at 3 µM of 84% and an inhibition at 30 µM (30 μM compound) of 98%.
N=C(N)NCCC[C@H](NC(=O)c1sccc1NS(=O)(=O)c1cc(-c2ccccc2CNCc2cc[nH]n2)cc2c1OCC2)C(=O)O [Compound 53, (S)-5-Guanidino-2-({3-[5-(2-{[(1H-pyrazol-3-ylmethyl)-amino]-methyl}-phenyl)-2,3-dihydro-benzofuran-7-sulfonylamino]-thiophene-2-carbonyl}-amino)-pentanoic acid] showed an inhibition at 3 µM of 54%.
With N=C(N)NCCC[C@H](NC(=O)c1sccc1NS(=O)(=O)c1cc(-c2cccc(CNCc3ccncc3)c2)cc2c1OCC2)C(=O)O [Compound 32, (S)-5-Guanidino-2-({3-[5-(3-{[(pyridin-4-ylmethyl)-amino]-methyl}-phenyl)-2,3-dihydro-benzofuran-7-sulfonylamino]-thiophene-2-carbonyl}-amino)-pentanoic acid] the inhibition at 3 µM was 75%.
N=C(N)NCCC[C@H](NC(=O)c1sccc1NS(=O)(=O)c1cc(-c2cccc(CN3CCN(Cc4cccnc4)CC3)c2)cc2c1OCC2)C(=O)O [Compound 11, (S)-5-Guanidino-2-[(3-{5-[3-(4-pyridin-3-ylmethyl-piperazin-1-ylmethyl)-phenyl]-2,3-dihydro-benzofuran-7-sulfonylamino}-thiophene-2-carbonyl)-amino]-pentanoic acid] was tested, and the IC50 was 1.5 µM and the inhibition at 30 µM (30 μM compound) was 98%.
In the case of N=C(N)NCCC[C@H](NC(=O)c1sccc1NS(=O)(=O)c1cc(-c2ccccc2CNCc2cn[nH]c2)cc2c1OCC2)C(=O)O [Compound 54, (S)-5-Guanidino-2-({3-[5-(2-{[(1H-pyrazol-4-ylmethyl)-amino]-methyl}-phenyl)-2,3-dihydro-benzofuran-7-sulfonylamino]-thiophene-2-carbonyl}-amino)-pentanoic acid], the inhibition at 3 µM is reported as 70%.
For N=C(N)NCCC[C@H](NC(=O)c1sccc1NS(=O)(=O)c1cc(-c2ccccc2CN2CCN(Cc3ccncc3)CC2)cc2c1OCC2)C(=O)O [Compound 17, (S)-5-Guanidino-2-[(3-{5-[2-(4-pyridin-4-ylmethyl-piperazin-1-ylmethyl)-phenyl]-2,3-dihydro-benzofuran-7-sulfonylamino}-thiophene-2-carbonyl)-amino]-pentanoic acid], the inhibition at 3 µM was 56% and the “Screen (% inhibition at 30 μM)” value (30 μM compound, 30 µM) was 94%.
